Measurements from patent US12509460B2 (Skyhawk Therapeutics, Inc., priority 2019, dated 2025).
Like-named read-outs stand apart in the source and are kept apart here.

Experiments:
[1] = Quantitative splicing assay (HTT), qPCR; format: cell-based, human; settings: Homo sapiens, GM04724, 24 h, GM04724 lymphoblasts, read-out: HTT Splicing: E49-50 EC50
Method: Example A9: Quantitative Splicing Assay (HTT)
GM04724 (CAG 70/20) Huntington's disease patient lymphoblasts (Coriell) are plated in 96-well v-bottom plates at 50,000 cells/well. Immediately after plating, cells are dosed with compound for 24 h at concentrations ranging from 2.5 uM to 0.15 nM (0.1% DMSO). Treated cells are lysed and cDNA synthesized using the Fast Advanced Cells-to-Ct kit (Thermofisher A35378) according to the manufacturer's instructions. 2 uL of each cDNA are used in qPCR reactions to confirm the compound-induced inclusion of a cryptic exon within intron 49 of the Huntingtin (HTT) transcripts. The qPCR reactions are prepared in 384-well plates in 10 uL volume, using TagMan™ Fast Advanced Master Mix [ThermoFisher, 4444965] with primers and probes shown in the table below. Reactions are run in a Quant studio 6 qPCR instrument with default settings.

[2] = tested on: SMN FL and SMN Δ7 in spinal muscular atrophy (SMA) patient fibroblasts (GM03813, Coriell); assay: Quantitative splicing assay (SMN), qPCR; format: cell-based, human; settings: SMA patient fibroblasts GM03813, 24 h, qPCR, read-out: SMN2 Splicing FL EC50
Method: Spinal muscular atrophy (SMA) patient fibroblasts (GM03813, Coriell) are plated in 96-well plates at 50,000 cells/well. […] Treated cells are lysed and cDNA synthesized using the Fast Advanced Cells-to-Ct kit (Thermofisher A35378) according to the manufacturer's instructions. 2 μL of each cDNA are used in qPCR reactions. […] Reactions are run in a Quant Studio 6 qPCR instrument with default settings.

[3] = tested on: mHTT protein in GM04724 (CAG 70/20) Huntington's disease patient lymphoblast cells; assay: mHTT protein assay, 2B7-MW1 assay via Mesoscale Discovery (MSD); format: cell-based, human
Outline: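 Patient lymphoblasts treated 48 h with compound from 10 μM to 0.6 nM. mHTT quantified by MSD 2B7-MW1 immunoassay, whose signal depends on polyQ expansion and HTT size. Viability measured on a replicate plate by CellTiter Glo.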

[4] = tested on: MDR1-MDCK cell monolayers; assay: Blood-brain-barrier (BBB) penetration potential via MDCK-MDR1 permeability assay
[5] = tested on: SMN protein in spinal muscular atrophy (SMA) patient fibroblasts (GM03813, Coriell); assay: SMN protein assay, Mesoscale Discovery (MSD); format: cell-based, human; settings: for EC50: read-out: SMN2 protein EC50
Outline: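 SMA patient fibroblasts (GM03813) seeded at 7000 cells/well and exposed to compound at 2.5 μM to 0.6 nM for 48 hours. Lysates assayed for SMN by MSD immunoassay, with absolute SMN amount calculated from a per-plate SMN standard curve (1 μg/ml to 19.5 pg/ml).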

MDR1 = assay: Blood-brain-barrier (BBB) penetration potential via MDCK-MDR1 permeability assay; settings: dog, MDCK-MDR1, pH 7.4, MDCK-MDR1: Efflux
MDR1 (P-gp) = assay: as above; settings: dog; for Papp A→B at 120 min, 5 μM: MDCK-MDR1, pH 7.4, MDCK-MDR1: Papp A-B; for Papp B→A at 120 min, 5 μM: MDCK-MDR1, pH 7.4, MDCK-MDR1: Papp B-A
[6] = GM04724 Huntington's disease patient lymphoblasts
[7] = SMA patient fibroblasts GM03813, 48 hours, MSD

Compound | EC50 ([1]; qPCR) | EC50 [3, 6] | MDCK-MDR1: % Recov A-B ([4]; A-B direction) | MDCK-MDR1: % Recov B-A ([4]; B-A direction) | efflux ratio at 120 min, 5 μM (MDR1; efflux ratio) | Papp A→B at 120 min, 5 μM (MDR1 (P-gp); A-B direction) | Papp B→A at 120 min, 5 μM (MDR1 (P-gp); B-A direction) | EC50 [5, 7] | EC50 ([2]; Homo sapiens, Fibroblast, 24 h) | other results
COc1cc(-c2ccc(-c3ccc(N(C)[C@H]4CC5N[C@@H](C4)CC5(F)F)nn3)c(O)c2)cnn1 (single isomer, unassigned) [Compound 2B] | 0.01 to 15 nM | 0.01 to 15 nM | 54% | 84% | – | – | – | – | – | EC50 [2]: 0.01 to 15 nM; MDCK-MDR1: Papp A-B ([4]; A-B direction): 9.99 10^−6, cm/s; MDCK-MDR1: Papp B-A ([4]; B-A direction): 52.8 10^−6, cm/s; MDCK-MDR1: Efflux ([4]; efflux ratio): 5; SMN2 protein EC50 [5, 7]: E (501 ≤ E ≤ 10.000)
CN(c1ccc(-c2cc3cnccc3cc2O)nn1)[C@@H]1C[C@H]2CC[C@H](N2)[C@@H]1F (single isomer, unassigned) [Compound 7A] | 16 to 50 nM | 0.01 to 15 nM | 65% | 75% | 6 | 3.31 ×10⁻⁶ cm/s | 20.1 ×10⁻⁶ cm/s | 0.01 to 15 nM | – | EC50 [2]: 16 to 50 nM
Cc1ccc(-c2ccc(-c3ccc(N(C)[C@H]4C[C@@H]5CC[C@@H](N5)[C@H]4F)nn3)c(O)c2)nn1 (single isomer, unassigned) [Compound 25B] | 16 to 50 nM | 16 to 50 nM | 105% | 108% | 29 | 1.61 ×10⁻⁶ cm/s | 46.8 ×10⁻⁶ cm/s | 0.01 to 15 nM | 16 to 50 nM | –
CN(c1ccc(-c2ccc(-c3cc[nH]n3)cc2O)nn1)[C@@H]1C[C@H]2CC[C@H](N2)[C@@H]1F (single isomer, unassigned) [Compound 33A] | 16 to 50 nM | 16 to 50 nM | 95% | 105% | 31 | 1.33 ×10⁻⁶ cm/s | 40.7 ×10⁻⁶ cm/s | 16 to 50 nM | 51 to 100 nM | –
CN(c1ccc(-c2ccc(-c3cc[nH]n3)cc2O)nn1)[C@H]1C[C@@H]2CC[C@@H](N2)[C@H]1F (single isomer, unassigned) [Compound 33B] | 0.01 to 15 nM | 0.01 to 15 nM | 87% | 82% | 30 | 1.75 ×10⁻⁶ cm/s | 53 ×10⁻⁶ cm/s | 0.01 to 15 nM | 16 to 50 nM | –
CN(c1ccc(-c2ccc(-c3ccn(C)n3)cc2O)nn1)[C@@H]1C[C@H]2CC[C@H](N2)[C@@H]1F (single isomer, unassigned) [Compound 36A] | 16 to 50 nM | 16 to 50 nM | 68% | 82% | 10 | 3.68 ×10⁻⁶ cm/s | 38.6 ×10⁻⁶ cm/s | 0.01 to 15 nM | 16 to 50 nM | –
CN(c1ccc(-c2ccc(-c3ccn(C)n3)cc2O)nn1)[C@H]1C[C@@H]2CC[C@@H](N2)[C@H]1F (single isomer, unassigned) [Compound 36B] | 0.01 to 15 nM | 0.01 to 15 nM | 72% | 79% | 7 | 5.87 ×10⁻⁶ cm/s | 41.8 ×10⁻⁶ cm/s | 0.01 to 15 nM | 0.01 to 15 nM | –
CN(c1ccc(-c2ccc(-n3cnc(Cl)c3)cc2O)nn1)C1CC2CC(F)(F)C(C1)N2 (single isomer, unassigned) [Compound 37A] | 0.01 to 15 nM | 16 to 50 nM | 52% | 69% | 2 | 17.3 ×10⁻⁶ cm/s | 34.4 ×10⁻⁶ cm/s | 16 to 50 nM | 16 to 50 nM | –
Cc1nc2cc(O)c(-c3ccc(N(C)[C@H]4C[C@@H]5CC[C@@H](N5)[C@H]4F)nn3)cc2o1 (single isomer, unassigned) [Compound 40B] | 0.01 to 15 nM | 0.01 to 15 nM | 67% | 99% | 16 | 4.71 ×10⁻⁶ cm/s | 75.8 ×10⁻⁶ cm/s | – | 16 to 50 nM | –
CN(c1ccc(-c2ccc(-c3nnco3)cc2O)nn1)[C@@H]1C[C@H]2CC[C@H](N2)[C@@H]1F [Compound 44A, 2-(6-(((1S,2S,3R,5R)-2-fluoro-8-azabicyclo[3.2.1]octan-3-yl)(methyl)amino)pyridazin-3-yl)-5-(1,3,4-oxadiazol-2-yl)phenol] | 16 to 50 nM | 0.01 to 15 nM | 87% | 86% | 6 | 8.12 ×10⁻⁶ cm/s | 50.9 ×10⁻⁶ cm/s | 101 to 500 nM | – | –
CN(c1ccc(-c2cc3ncn(C)c(=O)c3cc2O)nn1)[C@@H]1C[C@H]2CC[C@H](N2)[C@@H]1F [Compound 51A, 7-(6-(((1S,2S,3R,5R)-2-fluoro-8-azabicyclo[3.2.1]octan-3-yl)(methyl)amino)pyridazin-3-yl)-6-hydroxy-3-methylquinazolin-4(3H)-one] | 0.01 to 15 nM | 0.01 to 15 nM | 94% | 86% | 47 | 0.81 ×10⁻⁶ cm/s | 38 ×10⁻⁶ cm/s | – | – | SMN2 protein EC50 [5, 7]: E (501 ≤ E ≤ 10.000)
CN(c1ccc(-c2cc3ccncc3s2)nn1)[C@@H]1C[C@H]2CC[C@H](N2)[C@@H]1F [Compound 65A, (1S,2S,3R,5R)-2-fluoro-N-methyl-N-(6-(thieno[2,3-c]pyridin-2-yl)pyridazin-3-yl)-8-azabicyclo[3.2.1]octan-3-amine] | 10 to 501 nM | 101 to 500 nM | 94% | 93% | 9 | 5.82 ×10⁻⁶ cm/s | 50.5 ×10⁻⁶ cm/s | 51 to 100 nM | – | –
CN(c1ccc(-c2cc3ccncc3s2)nn1)[C@H]1C[C@@H]2CC[C@@H](N2)[C@H]1F [Compound 65B, (1R,2R,3S,5S)-2-fluoro-N-methyl-N-(6-(thieno[2,3-c]pyridin-2-yl)pyridazin-3-yl)-8-azabicyclo[3.2.1]octan-3-amine] | 101 to 500 nM | 51 to 100 nM | 84% | 87% | 8 | 6.9 ×10⁻⁶ cm/s | 54.6 ×10⁻⁶ cm/s | 16 to 50 nM | – | –
CN(c1ccc(-c2cc(C#N)c(F)cc2O)nn1)[C@H]1C[C@@H]2CC[C@@H](N2)[C@H]1F [Compound 72B, 2-fluoro-5-(6-(((1R,2R,3S,5S)-2-fluoro-8-azabicyclo[3.2.1]octan-3-yl)(methyl)amino)pyridazin-3-yl)-4-hydroxybenzonitrile] | 101 to 500 nM | 101 to 500 nM | 78% | 74% | 3 | 10.9 ×10⁻⁶ cm/s | 36.4 ×10⁻⁶ cm/s | 51 to 100 nM | – | –
CN(c1ccc(-c2cc3cnccc3cc2O)nn1)[C@@H]1C[C@H]2CCC[C@H](N2)[C@@H]1F [Compound 121A, 7-(6-(((1S,2S,3R,5R)-2-fluoro-9-azabicyclo[3.3.1]nonan-3-yl)(methyl)amino)pyridazin-3-yl)isoquinolin-6-ol] | – | – | – | – | – | – | – | – | – | EC50 [1]: 51 to 100 nM; EC50 ([3]; GM04724 (CAG 70/20) Huntington's disease patient lymphoblasts): 16 to 50 nM; efflux ratio at 120 min, 5 μM (MDR1): 11; Papp A→B at 120 min, 5 μM (MDR1 (P-gp); A-B): 2.65 ×10⁻⁶ cm/s; Papp B→A at 120 min, 5 μM (MDR1 (P-gp); B-A): 29.8 ×10⁻⁶ cm/s; MDCK-MDR1: % Recov A-B ([4]; A-B): 81%; MDCK-MDR1: % Recov B-A ([4]; B-A): 95%; SMN2 protein EC50 ([5]; SMA patient fibroblasts (GM03813), 48 hours): E (501 ≤ E ≤ 10.000)
